Measurements: patent publication US20190314382A1, “COMPOUNDS AND PHARMACEUTICAL COMPOSITIONS THEREOF FOR THE TREATMENT OF INFLAMMATORY DISEASES” (Galapagos NV, priority 2016, published 2019)

How the values were obtained:
[1] = cited from earlier work
[2] = tested on: IL-17A; test: Biomarker study in RA subjects: serum IL-17A, Luminex 18-Plex; assay type: in vivo, human; settings: observed case
Description: (§1) Double-blind, placebo-controlled add on study in subjects with moderately to severely active RA who have an inadequate response to MTX (oral or parenteral).
(§2) 595 subjects randomized to one of 6 dose regimens of Compound 1 (dosed as a [Compound 1:HCl:3H2O]) (3 dose levels administered either once or twice daily) or placebo on top of each subject's stable dose of MTX.
(§3) Compound 1 (dosed as a [Compound 1:HCl:3H2O]) is dosed for twelve weeks once daily (q.d.) (50 mg, 100 mg or 200 mg) or twice daily (b.i.d.) (25 mg, 50 mg or 100 mg); or placebo.
(§4) 18 parameters from human serum samples (GM-CSF, IFNγ, IL-1β, IL-2, IL-4, IL-5, IL-6, IL-7, IL-8, IL-10, IL-12 (p70), IL-13, IL-17A, IL-21, IL-23, MIP-1α, MIP-1β and TNF-α) are analyzed on a Luminex Plateform (BioPlex® L200) using a Luminex 18-Plex Kit (Millipore: HSTCMAG-28SK).
(§5) Coupled beads react with the sample containing the biomarker of interest. […] Phycoerythrin (PE) serves as a fluorescent indicator.
(§6) The concentration of bead bound analyte is proportional to the MFI (Median Fluorescent Intensity) and back-calculated from interpolation with the calibration curve fitted with a 4 or 5 parameters logistic (4PL or 5PL) regression model selected during method pre-validation.
(§7) Treatment effect was assessed using an ANCOVA model on the changes from baseline, with factors: treatment, baseline value of the PD marker, geographical region and previous use of biologics.

[3] = tested on: IL-5; test: Biomarker study in RA subjects: serum IL-5, Luminex 18-Plex; assay type: in vivo, human; settings: observed case
Description: as §1, §2, §3, §4, §5, §6, §7

[4] = tested on: IL-6; test: Biomarker study in RA subjects: serum IL-6, Luminex 18-Plex; assay type: in vivo, human; settings: observed case
Description: as §1, §2, §3, §4, §5, §6, §7

[5] = tested on: IL-12 (p70); test: Biomarker study in RA subjects: serum IL-12, Luminex 18-Plex; assay type: in vivo, human; settings: observed case
Description: as §1, §2, §3, §4, §5, §6, §7

[6] = tested on: IL-4; test: Biomarker study in RA subjects: serum IL-4, Luminex 18-Plex; assay type: in vivo, human; settings: observed case
Description: as §1, §2, §3, §4, §5, §6, §7

[7] = tested on: IL-21; test: Biomarker study in RA subjects: serum IL-21, Luminex 18-Plex; assay type: in vivo, human; settings: observed case
Description: as §1, §2, §3, §4, §5, §6, §7

[8] = tested on: IFNγ; test: Biomarker study in RA subjects: serum IFNγ, Luminex 18-Plex; assay type: in vivo, human; settings: observed case
Description: as §1, §2, §3, §4, §5, §6, §7

[9] = tested on: MIP-1β; test: Biomarker study in RA subjects: serum MIP-1β, Luminex 18-Plex; assay type: in vivo, human; settings: observed case
Description: as §1, §2, §3, §4, §5, §6, §7

[10] = tested on: TNF-α; test: Biomarker study in RA subjects: serum TNF-α, Luminex 18-Plex; assay type: in vivo, human; settings: observed case
Description: as §1, §2, §3, §4, §5, §6, §7

[11] = tested on: IL-8; test: Biomarker study in RA subjects: serum IL-8, Luminex 18-Plex; assay type: in vivo, human; settings: observed case
Description: as §1, §2, §3, §4, §5, §6, §7

[12] = tested on: MIP-1α; test: Biomarker study in RA subjects: serum MIP-1α, Luminex 18-Plex; assay type: in vivo, human; settings: observed case
Description: as §1, §2, §3, §4, §5, §6, §7

[13] = tested on: IL-2; test: Biomarker study in RA subjects: serum IL-2, Luminex 18-Plex; assay type: in vivo, human; settings: observed case
Description: as §1, §2, §3, §4, §5, §6, §7

[14] = tested on: IL-10; test: Biomarker study in RA subjects: serum IL-10, Luminex 18-Plex; assay type: in vivo, human; settings: observed case
Description: as §1, §2, §3, §4, §5, §6, §7

[15] = 50 mg bid, Week 4, N = 73, RA subjects on MTX
[16] = 50 mg bid, Week 12, N = 73, RA subjects on MTX
[17] = 100 mg bid, Week 4, N = 79, RA subjects on MTX
[18] = 100 mg bid, Week 12, N = 79, RA subjects on MTX
[19] = 100 mg qd, Week 4, N = 68, RA subjects on MTX
[20] = 100 mg qd, Week 12, N = 68, RA subjects on MTX
[21] = 200 mg qd, Week 4, N = 75, RA subjects on MTX
[22] = 200 mg qd, Week 12, N = 75, RA subjects on MTX

O=C(Nc1nc2cccc(-c3ccc(CN4CCS(=O)(=O)CC4)cc3)n2n1)C1CC1 [Compound 1, cyclopropanecarboxylic acid {5-[4-(1,1-dioxo-thiomorpholin-4-ylmethyl)-phenyl]-[1,2,4]triazolo[1,5-a]pyridin-2yl}-amide]
safety profile ([1]; in particular regarding anemia, lymphocytes, neutrophils, hemoglobin): remarkable safety profile
efficacy in phase II ([1]; rheumatoid arthritis, inflammatory bowel diseases, in particular Crohn's disease): remarkable efficacy
IL-17α Mean change from baseline at Week 4 [2, 15]: -4.4 pg/mL
IL-17α Mean change from baseline at Week 12 [2, 16]: -3.3 pg/mL
IL-17α Mean change from baseline at Week 4 [2, 17]: 3.9 pg/mL
IL-17α Mean change from baseline at Week 12 [2, 18]: -1.9 pg/mL
IL-17α Mean change from baseline at Week 4 [2, 19]: -5.9 pg/mL
IL-17α Mean change from baseline at Week 12 [2, 20]: -7.4 pg/mL
IL-17α Mean change from baseline at Week 4 [2, 21]: -1.6 pg/mL
IL-17α Mean change from baseline at Week 12 [2, 22]: -0.9 pg/mL
IL-5 Mean change from baseline at Week 4 [3, 15]: -18.2 pg/mL
IL-5 Mean change from baseline at Week 12 [3, 16]: -18.1 pg/mL
IL-5 Mean change from baseline at Week 4 [3, 17]: -0.8 pg/mL
IL-5 Mean change from baseline at Week 12 [3, 18]: -1.5 pg/mL
IL-5 Mean change from baseline at Week 4 [3, 19]: -0.2 pg/mL
IL-5 Mean change from baseline at Week 12 [3, 20]: -0.7 pg/mL
IL-5 Mean change from baseline at Week 4 [3, 21]: 0.1 pg/mL
IL-5 Mean change from baseline at Week 12 [3, 22]: 0.0 pg/mL
IL-6 Mean change from baseline at Week 4 [4, 15]: -4.2 pg/mL
IL-6 Mean change from baseline at Week 12 [4, 16]: -6.0 pg/mL
IL-6 Mean change from baseline at Week 4 [4, 17]: -11.0 pg/mL
IL-6 Mean change from baseline at Week 12 [4, 18]: -14.1 pg/mL
IL-6 Mean change from baseline at Week 4 [4, 19]: -7.0 pg/mL
IL-6 Mean change from baseline at Week 12 [4, 20]: -8.0 pg/mL
IL-6 Mean change from baseline at Week 4 [4, 21]: -9.6 pg/mL
IL-6 Mean change from baseline at Week 12 [4, 22]: -11.2 pg/mL
IL-12 Mean change from baseline at Week 4 [5, 15]: -1.9 pg/mL
IL-12 Mean change from baseline at Week 12 [5, 16]: -2.3 pg/mL
IL-12 Mean change from baseline at Week 4 [5, 17]: -2.3 pg/mL
IL-12 Mean change from baseline at Week 12 [5, 18]: -3.9 pg/mL
IL-12 Mean change from baseline at Week 4 [5, 19]: -0.2 pg/mL
IL-12 Mean change from baseline at Week 12 [5, 20]: -1.2 pg/mL
IL-12 Mean change from baseline at Week 4 [5, 21]: -1.7 pg/mL
IL-12 Mean change from baseline at Week 12 [5, 22]: 20.5 pg/mL
IL-4 Mean change from baseline at Week 4 [6, 15]: -0.3 pg/mL
IL-4 Mean change from baseline at Week 12 [6, 16]: -2.1 pg/mL
IL-4 Mean change from baseline at Week 4 [6, 17]: -2.7 pg/mL
IL-4 Mean change from baseline at Week 12 [6, 18]: -2.7 pg/mL
IL-4 Mean change from baseline at Week 4 [6, 19]: 0.8 pg/mL
IL-4 Mean change from baseline at Week 12 [6, 20]: -1.6 pg/mL
IL-4 Mean change from baseline at Week 4 [6, 21]: 0.2 pg/mL
IL-4 Mean change from baseline at Week 12 [6, 22]: -2.5 pg/mL
IL-21 Mean change from baseline at Week 4 [7, 15]: -0.1 pg/mL
IL-21 Mean change from baseline at Week 12 [7, 16]: -1.6 pg/mL
IL-21 Mean change from baseline at Week 4 [7, 17]: -1.6 pg/mL
IL-21 Mean change from baseline at Week 12 [7, 18]: -2.8 pg/mL
IL-21 Mean change from baseline at Week 4 [7, 19]: -0.3 pg/mL
IL-21 Mean change from baseline at Week 12 [7, 20]: 0.5 pg/mL
IL-21 Mean change from baseline at Week 4 [7, 21]: -1.4 pg/mL
IL-21 Mean change from baseline at Week 12 [7, 22]: -2.3 pg/mL
IFNγ Mean change from baseline at Week 4 [8, 15]: 1.6 pg/mL
IFNγ Mean change from baseline at Week 12 [8, 16]: -3.4 pg/mL
IFNγ Mean change from baseline at Week 4 [8, 17]: -3.3 pg/mL
IFNγ Mean change from baseline at Week 12 [8, 18]: -5.8 pg/mL
IFNγ Mean change from baseline at Week 4 [8, 19]: -3.8 pg/mL
IFNγ Mean change from baseline at Week 12 [8, 20]: -6.6 pg/mL
IFNγ Mean change from baseline at Week 4 [8, 21]: 0.5 pg/mL
IFNγ Mean change from baseline at Week 12 [8, 22]: -3.1 pg/mL
MIP-1β Mean change from baseline at Week 4 [9, 15]: 0.4 pg/mL
MIP-1β Mean change from baseline at Week 12 [9, 16]: -1.1 pg/mL
MIP-1β Mean change from baseline at Week 4 [9, 17]: -2.1 pg/mL
MIP-1β Mean change from baseline at Week 12 [9, 18]: -1.3 pg/mL
MIP-1β Mean change from baseline at Week 4 [9, 19]: -0.7 pg/mL
MIP-1β Mean change from baseline at Week 12 [9, 20]: -1.7 pg/mL
MIP-1β Mean change from baseline at Week 4 [9, 21]: -1.6 pg/mL
MIP-1β Mean change from baseline at Week 12 [9, 22]: -1.5 pg/mL
TNFα Mean change from baseline at Week 4 [10, 15]: -0.2 pg/mL
TNFα Mean change from baseline at Week 12 [10, 16]: 0.3 pg/mL
TNFα Mean change from baseline at Week 4 [10, 17]: -1.7 pg/mL
TNFα Mean change from baseline at Week 12 [10, 18]: -2.2 pg/mL
TNFα Mean change from baseline at Week 4 [10, 19]: 1.0 pg/mL
TNFα Mean change from baseline at Week 12 [10, 20]: -1.0 pg/mL
TNFα Mean change from baseline at Week 4 [10, 21]: 0.0 pg/mL
TNFα Mean change from baseline at Week 12 [10, 22]: -1.2 pg/mL
IL-8 Mean change from baseline at Week 4 [11, 15]: 2.3 pg/mL
IL-8 Mean change from baseline at Week 12 [11, 16]: 6.9 pg/mL
IL-8 Mean change from baseline at Week 4 [11, 17]: -1.8 pg/mL
IL-8 Mean change from baseline at Week 12 [11, 18]: 2.4 pg/mL
IL-8 Mean change from baseline at Week 4 [11, 19]: 4.1 pg/mL
IL-8 Mean change from baseline at Week 12 [11, 20]: 0.7 pg/mL
IL-8 Mean change from baseline at Week 4 [11, 21]: -2.0 pg/mL
IL-8 Mean change from baseline at Week 12 [11, 22]: -1.6 pg/mL
MIP-1α Mean change from baseline at Week 4 [12, 15]: 1.0 pg/mL
MIP-1α Mean change from baseline at Week 12 [12, 16]: 8.5 pg/mL
MIP-1α Mean change from baseline at Week 4 [12, 17]: -3.1 pg/mL
MIP-1α Mean change from baseline at Week 12 [12, 18]: -5.2 pg/mL
MIP-1α Mean change from baseline at Week 4 [12, 19]: 7.0 pg/mL
MIP-1α Mean change from baseline at Week 12 [12, 20]: 9.1 pg/mL
MIP-1α Mean change from baseline at Week 4 [12, 21]: -1.6 pg/mL
MIP-1α Mean change from baseline at Week 12 [12, 22]: -2.6 pg/mL
IL-2 Mean change from baseline at Week 4 [13, 15]: -0.2 pg/mL
IL-2 Mean change from baseline at Week 12 [13, 16]: -1.9 pg/mL
IL-2 Mean change from baseline at Week 4 [13, 17]: -2.3 pg/mL
IL-2 Mean change from baseline at Week 12 [13, 18]: -4.1 pg/mL
IL-2 Mean change from baseline at Week 4 [13, 19]: -1.9 pg/mL
IL-2 Mean change from baseline at Week 12 [13, 20]: -3.5 pg/mL
IL-2 Mean change from baseline at Week 4 [13, 21]: -2.0 pg/mL
IL-2 Mean change from baseline at Week 12 [13, 22]: -3.3 pg/mL
IL-10 Mean change from baseline at Week 4 [14, 15]: -2.1 pg/mL
IL-10 Mean change from baseline at Week 12 [14, 16]: -3.7 pg/mL
IL-10 Mean change from baseline at Week 4 [14, 17]: -3.3 pg/mL
IL-10 Mean change from baseline at Week 12 [14, 18]: -4.2 pg/mL
IL-10 Mean change from baseline at Week 4 [14, 19]: 0.1 pg/mL
IL-10 Mean change from baseline at Week 12 [14, 20]: -0.1 pg/mL
IL-10 Mean change from baseline at Week 4 [14, 21]: -0.5 pg/mL
IL-10 Mean change from baseline at Week 12 [14, 22]: -1.5 pg/mL
